Results published in patent US20250100996A1, “HETEROCYCLOALKYL AND HETEROARYL COMPOUNDS AND PHARMACEUTICAL COMPOSITIONS THAT MODULATE IKZF2” (Plexium, Inc., priority 2021, published 2025).
pEC50: −log10 of the molar value.

Assays:
[1] = target: T1, human E3 ligase component cereblon (CRBN) (Homo sapiens, UniProt Q96SW2); experiment: Cereblon (CRBN) target engagement, NanoBRET TE Intracellular E3 Ligase Assay in transfected HEK-293T cells; settings: read-out: CRBN Binding EC50
T1 construct: host or cells: HEK293T
In short: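 HEK-293T cells transiently co-transfected with NanoLuc-CRBN (N-terminal NanoLuc) and DDB1 were dosed with CRBN tracer and an 11-point compound series (typically 10 μM to 100 pM) for 2 h at 37° C. BRET at 450/610 nm gave IC50 by four-parameter logistic fit.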

[2] = target: T2, IKZF1 (Ikaros) (Homo sapiens, UniProt Q13422); experiment: IKZF1 reporter degradation assay (HEK 293T IKZF1-mNeonGreen reporter cell line); assay type: cell-based; settings: HEK 293T IKZF1-mNeonGreen reporter, 24 hours incubation
T2 construct: mScarlet (behind P2A) (C, cleaved yes); expressed in transfected cells
From the text: Polycistronic plasmids were constructed for the mammalian expression of fluorescent reporter fusions of human transcription factors IKZF1 (Ikaros), IKZF2 (Helios), and IKZF3 (Aiolos). The respective protein sequences had their C-terminal end joined to a GGGGS linker repeated three times followed by mNeonGreen, P2A sequence, and mScarlet. The DNA sequences of the open reading frames are as follows:
IKZF1, IKZF2, and IKZF3 constructs were cloned into the UCOE Hygromycin expression vectors (Millipore Sigma). Reporter constructs were transfected using cationic lipid reagents into adherent HEK 293T cells and stable integrants were selected by treatment with 200 μg/mL hygromycin B. Clonal populations were obtained from the population of stable integrants either by limiting dilution or fluorescence activated cell sorting.
The clonal stable cell lines were maintained under constant 200 μg/mL hygromycin B selection while being passaged for use in the degradation assays. […] The fluorescence intensity of the IKZF1/2/3-mNeonGreen (FITC channel) and mScarlet (PE channel) reporters were routinely analyzed by flow cytometry to confirm consistent expression levels between experiments.
The IKZF1/IKZF2/IKZF3 degradation assays were carried out by harvesting the HEK 293T reporter cell lines and resuspending the cells in media formulated for reduced background fluorescence (FluoroBrite; Thermo Fisher). The respective cell lines were seeded at a density of 4000 cells/well into black-walled 384-well optical grade assay tissue culture plates. The cells were incubated overnight at 37° C. to allow for attachment to the assay plate. Dilutions of the compounds were prepared in DMSO from 10 mM compound stocks. The assay plates were treated with appropriate concentrations of the compounds by dispensing the DMSO dilutions in quadruplicate wells with an upper limit of 0.5% final DMSO.
After 24 hours incubation with the compounds, the assay plates were imaged on an ImageXpress Pico microscopy system (cells maintained at 37° C. during imaging) to obtain the fluorescent readouts. The assay plates were imaged in the FITC and Tetramethylrhodamine (TRITC) channels to obtain the mNeonGreen fluorescence intensity (reporter degradation data) and mScarlet fluorescence intensity (for cell segmentation). 293T-IKZF1 and 293T-IKZF3 reporter cell lines were imaged with exposures of 500 milliseconds (ms) for both FITC and TRITC channels, while the 293T-IKZF2 reporter cell line was imaged with exposures of 1000 ms for FITC and 1250 ms for TRITC. The resulting data was analyzed with Cell Reporter Xpress software using the 2-channel cell scoring analysis with a “percent positive” readout. The TRITC channel was selected for the “nuclei” segmentation with a threshold of 20 while the FITC channel was selected for the “Marker 1” segmentation and a threshold of 100 for the IKZF1 and IKZF3 reporter lines. […] The minimum segmentation width was set to 6 micrometers and the maximum segmentation width was set to 15 micrometers for all cell lines. The DC50 calculations were determined by regression to best fit four-parameter logistic curves using GraphPad Prism.

[3] = target: T3, IKZF2 (Helios) (Homo sapiens, UniProt Q9UKS7); experiment: IKZF2 reporter degradation assay (HEK 293T IKZF2-mNeonGreen reporter cell line); assay type: cell-based; settings: HEK 293T IKZF2-mNeonGreen reporter, 24 hours incubation
T3 construct: Leu-Asp junction (codons ctcgac before the linker); mScarlet (behind P2A) (C, cleaved yes); expressed in transfected cells
In short: (§1)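 HEK 293T, stable IKZF1/2/3-mNeonGreen + P2A-mScarlet; cpd 24 h, 37 °C, max 0.5% DMSO, n=4 wells; FITC/TRITC imaging, % positive; DC50 by 4PL fit.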

[4] = target: T4, IKZF3 (Aiolos) (Homo sapiens, UniProt Q9UKT9); experiment: IKZF3 reporter degradation assay (HEK 293T IKZF3-mNeonGreen reporter cell line); assay type: cell-based; settings: HEK 293T IKZF3-mNeonGreen reporter, 24 hours incubation
T4 construct: Leu-Asp junction (codons ctcgac before the linker); mScarlet (behind P2A) (C, cleaved yes); expressed in transfected cells
In short: as §1

[5] = target: T5, IKZF2 (Helios) (Homo sapiens, UniProt Q96SW2+Q9UKS7); experiment: IKZF2 reporter degradation assay (HEK 293T IKZF2-mNeonGreen reporter cell line); assay type: cell-based; settings: @ 1 μM, HEK 293T IKZF2-mNeonGreen reporter, 24 hours incubation; for inhibition at 1 µM: HEK-293T, 24 h
T5 construct: Leu-Asp junction (codons ctcgac before the linker); mScarlet (behind P2A) (C, cleaved yes); expressed in transfected cells
In short: as §1

T1 sequence (Q96SW2 whole entry): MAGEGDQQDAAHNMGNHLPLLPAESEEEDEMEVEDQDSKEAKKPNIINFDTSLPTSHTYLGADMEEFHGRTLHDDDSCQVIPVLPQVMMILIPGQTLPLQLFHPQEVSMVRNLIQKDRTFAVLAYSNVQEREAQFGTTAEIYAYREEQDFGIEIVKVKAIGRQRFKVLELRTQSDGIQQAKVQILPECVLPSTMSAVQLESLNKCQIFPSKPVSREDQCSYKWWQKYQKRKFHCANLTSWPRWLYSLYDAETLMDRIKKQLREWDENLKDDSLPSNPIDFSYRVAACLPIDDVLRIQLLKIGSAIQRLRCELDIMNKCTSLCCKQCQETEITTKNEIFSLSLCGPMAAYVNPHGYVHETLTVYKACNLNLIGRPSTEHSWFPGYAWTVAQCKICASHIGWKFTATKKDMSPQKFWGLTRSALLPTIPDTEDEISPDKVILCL
T1 sequence (Q16531 whole entry partner): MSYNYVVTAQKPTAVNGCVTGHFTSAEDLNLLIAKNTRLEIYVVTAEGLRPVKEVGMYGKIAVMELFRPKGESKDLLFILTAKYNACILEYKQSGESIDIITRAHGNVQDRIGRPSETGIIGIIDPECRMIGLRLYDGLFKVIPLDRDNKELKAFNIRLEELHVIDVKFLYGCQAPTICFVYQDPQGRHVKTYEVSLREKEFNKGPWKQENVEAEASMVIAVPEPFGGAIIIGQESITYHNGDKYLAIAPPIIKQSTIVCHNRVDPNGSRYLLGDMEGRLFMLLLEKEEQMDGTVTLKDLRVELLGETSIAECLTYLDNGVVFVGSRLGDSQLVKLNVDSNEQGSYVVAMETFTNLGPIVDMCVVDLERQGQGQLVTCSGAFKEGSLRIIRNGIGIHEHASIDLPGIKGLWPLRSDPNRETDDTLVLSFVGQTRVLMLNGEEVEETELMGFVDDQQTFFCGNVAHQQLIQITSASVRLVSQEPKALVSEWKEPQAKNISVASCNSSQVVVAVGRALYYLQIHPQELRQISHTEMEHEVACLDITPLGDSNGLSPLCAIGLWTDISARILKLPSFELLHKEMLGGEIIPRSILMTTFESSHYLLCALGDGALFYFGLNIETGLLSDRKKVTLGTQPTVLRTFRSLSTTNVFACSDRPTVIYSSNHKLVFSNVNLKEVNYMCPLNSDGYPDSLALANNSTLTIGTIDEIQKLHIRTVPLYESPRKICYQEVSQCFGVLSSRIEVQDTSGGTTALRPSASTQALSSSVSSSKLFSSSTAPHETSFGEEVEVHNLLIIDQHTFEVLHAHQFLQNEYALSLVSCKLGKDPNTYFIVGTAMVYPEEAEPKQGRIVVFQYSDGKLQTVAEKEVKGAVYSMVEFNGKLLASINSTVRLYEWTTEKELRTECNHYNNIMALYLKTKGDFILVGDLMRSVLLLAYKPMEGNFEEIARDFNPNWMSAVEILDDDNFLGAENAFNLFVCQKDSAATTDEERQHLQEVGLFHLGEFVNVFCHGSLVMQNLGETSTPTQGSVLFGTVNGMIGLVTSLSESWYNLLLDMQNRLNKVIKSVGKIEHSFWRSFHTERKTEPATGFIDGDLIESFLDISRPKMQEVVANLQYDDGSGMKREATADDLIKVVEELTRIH
T4 sequence (Q96SW2 whole entry partner): as the sequence (Q96SW2 whole entry) above
T4 sequence (Q16531 whole entry partner): as the sequence (Q16531 whole entry partner) above
T4 sequence (Q9UKT9 whole entry): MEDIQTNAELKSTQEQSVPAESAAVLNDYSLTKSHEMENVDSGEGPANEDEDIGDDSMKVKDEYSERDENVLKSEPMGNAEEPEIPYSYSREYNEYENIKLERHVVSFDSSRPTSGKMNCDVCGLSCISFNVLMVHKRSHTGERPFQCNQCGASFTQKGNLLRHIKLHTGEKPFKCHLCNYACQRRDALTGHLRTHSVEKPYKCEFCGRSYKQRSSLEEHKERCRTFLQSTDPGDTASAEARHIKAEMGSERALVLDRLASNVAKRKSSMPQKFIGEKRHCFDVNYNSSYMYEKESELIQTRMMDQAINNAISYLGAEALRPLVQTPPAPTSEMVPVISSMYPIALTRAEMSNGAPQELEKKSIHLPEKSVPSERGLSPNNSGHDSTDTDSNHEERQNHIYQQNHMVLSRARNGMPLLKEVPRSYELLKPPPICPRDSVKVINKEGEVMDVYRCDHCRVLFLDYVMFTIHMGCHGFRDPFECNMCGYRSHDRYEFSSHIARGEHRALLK
T2 sequence (Q96SW2 whole entry partner): as the sequence (Q96SW2 whole entry) above
T2 sequence (Q16531 whole entry partner): as the sequence (Q16531 whole entry partner) above
T2 sequence (Q13422 whole entry): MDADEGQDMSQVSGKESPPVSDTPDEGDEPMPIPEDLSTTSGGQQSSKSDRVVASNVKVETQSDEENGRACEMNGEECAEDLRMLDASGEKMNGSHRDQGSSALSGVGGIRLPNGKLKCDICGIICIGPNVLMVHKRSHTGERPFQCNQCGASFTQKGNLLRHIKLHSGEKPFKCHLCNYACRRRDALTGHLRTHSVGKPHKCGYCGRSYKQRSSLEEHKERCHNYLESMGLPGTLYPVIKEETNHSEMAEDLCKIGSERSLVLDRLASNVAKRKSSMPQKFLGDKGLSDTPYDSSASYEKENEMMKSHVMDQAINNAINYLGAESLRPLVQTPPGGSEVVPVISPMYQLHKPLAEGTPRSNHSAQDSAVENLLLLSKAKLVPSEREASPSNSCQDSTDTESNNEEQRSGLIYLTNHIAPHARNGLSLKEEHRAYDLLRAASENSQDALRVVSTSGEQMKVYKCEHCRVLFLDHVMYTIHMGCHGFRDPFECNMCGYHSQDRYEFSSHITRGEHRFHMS
T3 sequence (Q9UKS7 whole entry): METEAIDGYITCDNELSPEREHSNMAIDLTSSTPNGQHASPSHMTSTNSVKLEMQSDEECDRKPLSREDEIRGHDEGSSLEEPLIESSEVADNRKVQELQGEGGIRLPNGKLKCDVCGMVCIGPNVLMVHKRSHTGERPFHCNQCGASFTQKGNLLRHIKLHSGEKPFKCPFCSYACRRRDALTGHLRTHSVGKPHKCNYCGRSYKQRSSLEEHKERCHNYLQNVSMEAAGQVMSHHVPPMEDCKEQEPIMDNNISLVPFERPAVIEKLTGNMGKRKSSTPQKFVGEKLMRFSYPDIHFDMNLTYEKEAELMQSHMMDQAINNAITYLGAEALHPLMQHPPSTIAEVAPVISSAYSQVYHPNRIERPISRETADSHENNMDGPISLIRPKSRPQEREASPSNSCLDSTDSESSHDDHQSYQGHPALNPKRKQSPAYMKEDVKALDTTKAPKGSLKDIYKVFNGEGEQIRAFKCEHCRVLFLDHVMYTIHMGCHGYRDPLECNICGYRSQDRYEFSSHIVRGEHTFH
T3 sequence (Q96SW2 whole entry, further chain): as the sequence (Q96SW2 whole entry) above
T3 sequence (Q16531 whole entry partner): as the sequence (Q16531 whole entry partner) above
T5 sequence (Q9UKS7 whole entry): as the sequence (Q9UKS7 whole entry) above
T5 sequence (Q96SW2 whole entry): as the sequence (Q96SW2 whole entry) above
T5 sequence (Q16531 whole entry partner): as the sequence (Q16531 whole entry partner) above

| SMILES | pEC50 [1] | DC50 [2] [nM] | DC50 [3] [nM] | DC50 [4] [nM] | IKZF2 % Degradation @ 1 μM [5] [%] | inhibition at 1 µM [5] [%] |
| --- | --- | --- | --- | --- | --- | --- |
| O=C1CCC(N2Cc3cc(O[C@H]4CCCC[C@@H]4N4CC(c5cncc(Cl)c5)C4)ccc3C2=O)C(=O)N1 (mixture of isomers) [Compound 168-B, Rac-3-(5-(((trans)-2-(3-(5-chloropyridin-3-yl)azetidin-1-yl)cyclohexyl)oxy)-1-oxoisoindolin-2-yl)piperidine-2,6-dione] | 7.32 | > 30000 | > 30000 | > 30000 |  |  |
| O=C1NC(=O)C2(N3Cc4cc(O[C@H]5CCCC[C@@H]5N5CC(c6ncc(Cl)cn6)C5)ccc4C3=O)CC1C2 (racemic) [Compound 172-B, Rac-1-(5-(((trans)-2-(3-(5-chloropyrimidin-2-yl)azetidin-1-yl)cyclohexyl)oxy)-1-oxoisoindolin-2-yl)-3-azabicyclo[3.1.1]heptane-2,4-dione] | < 5.00 | > 30000 | > 30000 | > 30000 |  |  |
| O=C1CCC(N2Cc3cc(O[C@H]4CCCC[C@@H]4N4CC(n5ccnc5)C4)ccc3C2=O)C(=O)N1 (stereo partly drawn) [Compound 176-B, 3-(5-(((1S,2S)-2-(3-(1H-imidazol-1-yl)azetidin-1-yl)cyclohexyl)oxy)-1-oxoisoindolin-2-yl)piperidine-2,6-dione] | 6.05 | > 30000 | 2100 | > 30000 |  |  |
| O=C1CCC(N2Cc3cc(O[C@H]4CCCC[C@@H]4N4CC(c5cc(Cl)ccn5)C4)ccc3C2=O)C(=O)N1 (mixture of isomers) [Compound 166-B, Rac-3-(5-(((trans)-2-(3-(4-chloropyridin-2-yl)azetidin-1-yl)cyclohexyl)oxy)-1-oxoisoindolin-2-yl)piperidine-2,6-dione] | 7.51 | > 30000 | > 30000 | > 30000 |  |  |
| O=C1CCC(N2Cc3cc(O[C@H]4CCCC[C@@H]4N4CC(c5ncc(C6CC6)cn5)C4)ccc3C2=O)C(=O)N1 (single isomer, unassigned) [Compound 135-B] | 8.52 |  | 13 | > 30000 | 77.7 |  |
| O=C1CCC(N2Cc3cc(O[C@@H]4CCCC[C@@H]4N4CC(c5ncncc5Cl)C4)ccc3C2=O)C(=O)N1 (mixture of isomers) [Compound 139-B, Rac-3-(5-(((cis)-2-(3-(5-chloropyrimidin-4-yl)azetidin-1-yl)cyclohexyl)oxy)-1-oxoisoindolin-2-yl)piperidine-2,6-dione] | 7.46 |  | 33 | > 30000 |  | 62.4 |
| Cc1cnccc1C1CN([C@H]2CCCC[C@@H]2Oc2ccc3c(c2)CN(C2CCC(=O)NC2=O)C3=O)C1 (single isomer, unassigned) [Compound 112-B] | 7.70 |  | 12 | > 30000 |  | 67.1 |
| O=C1CCC(N2Cc3cc(OC4CCCCC4N4CC(c5ccnnc5)C4)ccc3C2=O)C(=O)N1 (stereo not shown) [Compound 143-B, 3-(1-oxo-5-((2-(3-(pyridazin-4-yl)azetidin-1-yl)cyclohexyl)oxy)isoindolin-2-yl)piperidine-2,6-dione] | 6.61 |  | 581 | > 30000 |  | 20.4 |
| O=C1CCC(N2Cc3cc(O[C@H]4CCCC[C@@H]4N4CC(c5ccncc5Cl)C4)ccc3C2=O)C(=O)N1 (single isomer, unassigned) [Compound 95-B] | 7.52 |  | 23 | > 30000 |  | 77.8 |
| O=C1CCC(N2Cc3cc(O[C@H]4CCCC[C@@H]4N4CC(c5ncc(C(F)(F)F)cn5)C4)ccc3C2=O)C(=O)N1 (single isomer, unassigned) [Compound 123-B] | 9.00 |  | 0.1 | > 30000 | 69.6 |  |
| O=C1CCC(N2Cc3cc(O[C@H]4CCCC[C@@H]4N4CC(c5ccc(Cl)cn5)C4)ccc3C2=O)C(=O)N1 (single isomer, unassigned) [Compound 100-B] | 7.70 |  | 5 | > 30000 | 80.5 |  |
| O=C1CCC(N2Cc3cc(O[C@H]4CCCC[C@@H]4N4CC(c5ccncc5F)C4)ccc3C2=O)C(=O)N1 (single isomer, unassigned) [Compound 102-B] | 7.82 |  | 10 | > 30000 |  | 71.1 |
| O=C1CCC(N2Cc3cc(O[C@H]4CCCC[C@@H]4N4CC(c5ncc(Br)cn5)C4)ccc3C2=O)C(=O)N1 (mixture of isomers) [Compound 137-B, Rac-3-(5-(((trans)-2-(3-(5-bromopyrimidin-2-yl)azetidin-1-yl)cyclohexyl)oxy)-1-oxoisoindolin-2-yl)piperidine-2,6-dione] | 7.42 |  | 49 | > 30000 |  | 59.3 |

More lines, now with the values ahead:

| pEC50 [1] | DC50 [2] [nM] | DC50 [3] [nM] | DC50 [4] [nM] | IKZF2 % Degradation @ 1 μM [5] [%] | inhibition at 1 µM [5] [%] | SMILES |
| --- | --- | --- | --- | --- | --- | --- |
| 6.91 | > 30000 | > 30000 | > 30000 |  |  | O=C1CCC(N2Cc3cc(OC4CCC[C@@H]4N4CC(c5ccccn5)C4)ccc3C2=O)C(=O)N1 (mixture of isomers) [Compound 210-B, Rac-3-(1-oxo-5-(((trans)-2-(3-(pyridin-2-yl)azetidin-1-yl)cyclopentyl)oxy)isoindolin-2-yl)piperidine-2,6-dione] |
| 7.12 | > 30000 | > 30000 | > 30000 |  |  | O=C1CCC(N2Cc3cc(OC4CCC[C@@H]4N4CC(c5cccnc5)C4)ccc3C2=O)C(=O)N1 (mixture of isomers) [Compound 208-B, Rac-3-(1-oxo-5-(((trans)-2-(3-(pyridin-3-yl)azetidin-1-yl)cyclopentyl)oxy)isoindolin-2-yl)piperidine-2,6-dione] |
| 7.51 | > 30000 | > 30000 | > 30000 |  |  | O=C1CCC(N2Cc3cc(O[C@H]4CCCC[C@@H]4N4CC(c5ccc(C(F)(F)F)nc5)C4)ccc3C2=O)C(=O)N1 (mixture of isomers) [Compound 191-B, Rac-3-(1-oxo-5-(((trans)-2-(3-(6-(trifluoromethyl)pyridin-3-yl)azetidin-1-yl)cyclohexyl)oxy)isoindolin-2-yl)piperidine-2,6-dione] |
| 7.54 | > 30000 | > 30000 | > 30000 |  |  | COc1ccc(C2CN([C@H]3CCCC3Oc3ccc4c(c3)CN(C3CCC(=O)NC3=O)C4=O)C2)cn1 (mixture of isomers) [Compound 202-B, Rac-3-(5-(((trans)-2-(3-(6-methoxypyridin-3-yl)azetidin-1-yl)cyclopentyl)oxy)-1-oxoisoindolin-2-yl)piperidine-2,6-dione] |
| 7.70 | > 30000 | > 30000 | > 30000 |  |  | O=C1CCC(N2Cc3cc(OC4CCCC4N4CC(c5ncc(Cl)cn5)C4)ccc3C2=O)C(=O)N1 (stereo not shown) [Compound 200-B, 3-(5-((2-(3-(5-chloropyrimidin-2-yl)azetidin-1-yl)cyclopentyl)oxy)-1-oxoisoindolin-2-yl)piperidine-2,6-dione] |
| 7.15 | > 30000 | > 30000 | > 30000 |  |  | O=C1CCC(N2Cc3cc(OC4CCC[C@@H]4N4CC(c5ccncc5)C4)ccc3C2=O)C(=O)N1 (mixture of isomers) [Compound 206-B, Rac-3-(1-oxo-5-(((trans)-2-(3-(pyridin-4-yl)azetidin-1-yl)cyclopentyl)oxy)isoindolin-2-yl)piperidine-2,6-dione] |
